Values after ≈ are worked out from the molar mass of the structure shown.
Tests used:
hTRPV3 [1] = molecular target: T1, hTRPV3 (Homo sapiens (Human), UniProt Q8NET8); assay: FLIPR Assay (calcium flux, HEK293 cells stably expressing TRPV3); assay type: cell-based
Method: In Tables 3 and 4, Phase 1 refers to Phase 1 current for human (h) TRPV3 or rat (r) TRPV3, and Phase 2 refers to Phase 2 current for human (h) TRPV3 or rat (r) TRPV3. The hTRPV3 and rTRPV3 assays were performed as described herein. hERG refers to the inhibition the human ERG (hERG) channel. NaV1.5, refers to the pore forming aL-subunit of the voltage-dependent cardiac Na(+) channel and is an integral membrane protein involved in the initiation and conduction of action potentials. hTRPV3 HAMA IC50 refers to the IC50 of TRPV3 cells stably expressed in TRex-293 cells. Solubility Ringer refers to the compounds' solubility in Ringer's solution. LM T1/2 refers to liver microsome half-lives in either rat or human liver microsomes. FLIPR IC50 refers to the IC50 of the test compounds against recombinant hTRPV3 cells.
The cells were treated with IBSS and 20 mM HEPES adjusted to pH 7.4 in the presence of the fluorescent calcium indicator e.g. Fluo-4AM (5 uM) and the plates were incubated at 37° C. and […] for approximately 1 hour and cooled to room temperature. […] Relative Fluorescence Units (RFU) were measured for each response for signal maximum minus minimum during approximately 90 seconds after addition.

hTRPV3 [2] = molecular target: T1, hTRPV3; assay: hTRPV3 HAMA IC50 assay (Hamamatsu FDSS6000 calcium flux, TRex-293 cells)
Method: IC50s were calculated using CBIS from ChemInnovation (San Diego).

human hERG channels = human hERG channels (Homo sapiens (Human), UniProt Q12809); assay: hERG assay (patch clamp, CHO cells); assay type: cell-based; settings: (PL); read-out: hERG (nM) (PL)
Chain of human hERG channels (Q12809 whole entry): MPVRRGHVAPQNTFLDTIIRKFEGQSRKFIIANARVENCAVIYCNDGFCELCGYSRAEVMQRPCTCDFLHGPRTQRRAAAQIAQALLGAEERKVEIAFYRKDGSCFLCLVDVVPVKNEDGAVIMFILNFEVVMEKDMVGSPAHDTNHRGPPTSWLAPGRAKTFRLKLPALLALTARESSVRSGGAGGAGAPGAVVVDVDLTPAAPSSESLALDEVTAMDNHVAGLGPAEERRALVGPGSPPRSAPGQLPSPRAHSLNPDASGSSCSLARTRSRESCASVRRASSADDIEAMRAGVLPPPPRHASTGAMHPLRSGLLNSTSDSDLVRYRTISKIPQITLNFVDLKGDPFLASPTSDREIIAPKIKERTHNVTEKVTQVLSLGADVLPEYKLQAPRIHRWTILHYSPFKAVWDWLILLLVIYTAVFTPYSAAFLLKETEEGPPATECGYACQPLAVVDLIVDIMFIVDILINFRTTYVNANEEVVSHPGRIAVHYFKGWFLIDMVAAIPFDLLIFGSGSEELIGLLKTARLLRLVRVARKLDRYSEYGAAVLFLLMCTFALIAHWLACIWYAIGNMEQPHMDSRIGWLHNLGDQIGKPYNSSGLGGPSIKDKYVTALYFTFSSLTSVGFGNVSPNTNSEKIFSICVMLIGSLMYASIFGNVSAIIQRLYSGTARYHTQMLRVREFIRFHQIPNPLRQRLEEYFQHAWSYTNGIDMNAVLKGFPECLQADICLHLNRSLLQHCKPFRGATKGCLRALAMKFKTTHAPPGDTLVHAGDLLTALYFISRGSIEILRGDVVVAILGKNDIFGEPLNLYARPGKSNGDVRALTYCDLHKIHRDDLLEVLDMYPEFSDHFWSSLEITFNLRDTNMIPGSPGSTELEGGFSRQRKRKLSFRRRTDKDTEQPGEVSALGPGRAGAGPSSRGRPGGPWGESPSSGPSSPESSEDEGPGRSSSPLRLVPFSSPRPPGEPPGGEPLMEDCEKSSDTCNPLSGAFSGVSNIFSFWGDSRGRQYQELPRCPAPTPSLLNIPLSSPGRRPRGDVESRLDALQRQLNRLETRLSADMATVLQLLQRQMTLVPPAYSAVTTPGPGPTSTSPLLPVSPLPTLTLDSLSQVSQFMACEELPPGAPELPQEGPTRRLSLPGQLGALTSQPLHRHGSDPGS
Method: hERG assay: Briefly, cells from a stable CHO cell line expressing human hERG channels were plated onto glass coverslips and used in patch clamp assays on the same day. After seal formation and break-in to whole-cell configuration, voltage steps were applied as follows: from the holding potential of −90 mV, a 2 second long step to +40 mV was applied, followed by a 1.5 second step to −50 mV. These steps were applied once every 5 seconds. The hERG current was measured at the peak of the outward tail current at −50 mV. The pipette solution was potassium aspartate based and the external solution was normal Ringer's.
All currents were recorded in whole-cell configuration using an Axopatch 200B controlled by pClamp 10 software (Molecular Devices). In each cell, when the current stabilized, the compound was perfused locally onto the cell. Two to three concentrations of the test compound were applied to each cell. At the end of compound testing, 10 μM verapamil was applied to completely block hERG currents and assess leak current.
Data were analyzed by computing the degree of current block after compound addition compared with the unblocked current amplitude. The unblocked current was predicted from the interpolation between the current amplitude prior to compound addition and after compound washout. The resulting percent block at each concentration was used to make a concentration-response plot and fitted to the Hill equation: percent block=minimum block+(maximum block-minimum block)/(1+10^(Hill slope*(log IC50−concentration))).

hTRPV3 [3] = molecular target: T1, hTRPV3; assay: Whole-cell patch clamp, hTRPV3 Phase 1 / Phase 2 currents; assay type: cell-based
In short: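 Whole-cell recordings on induced TRPV3 cells replated on coverslips, held at −40 mV with 400 ms ramps from −120 to +100 mV every 5 s; currents read at −80 and +80 mV. Ringer's external solution; current activated by heating to ≥28 °C or 20 μM 2-APB.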

[4] = Aqueous solubility assay in Normal Ringer Solution; settings: Normal Ringer Solution; for solubility at 40 min: saline or isotonic, kinetic from dmso stock; for Solubility Ringer (nM): room temperature
Method: Following vortex and incubation for a sufficient time (e.g. 40 minutes at room temperature), solutions were filtered, quenched with acetonitrile, and analyzed by Liquid Chromotography. Solubility Limits were determined by comparison to a standard curve.

[5] = Metabolic Stability assay, rat liver microsomes; assay type: in vitro ADME; settings: read-out: LM T1/2 (min) (rat)
In short: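 Test article at 1 μM starting concentration incubated with human or rat liver microsomes at 37 °C, with the reaction started by NADPH regeneration components. Aliquots were quenched in cold acetonitrile/MeOH/H2O at 0, 7, 15, 30 and 60 min and analysed by HPLC/MS/MS.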

[6] = read-out: hTRPV3 HAMA IC50, 2-APB stimulated calcium flux
[7] = Phase 1 current, inward, whole-cell patch clamp, read-out: hTRPV3 Patch P1 Inwd
[8] = Phase 1 current, read-out: hTRPV3 (nM) (Phase 1)

T1 sequence (Q8NET8 whole entry): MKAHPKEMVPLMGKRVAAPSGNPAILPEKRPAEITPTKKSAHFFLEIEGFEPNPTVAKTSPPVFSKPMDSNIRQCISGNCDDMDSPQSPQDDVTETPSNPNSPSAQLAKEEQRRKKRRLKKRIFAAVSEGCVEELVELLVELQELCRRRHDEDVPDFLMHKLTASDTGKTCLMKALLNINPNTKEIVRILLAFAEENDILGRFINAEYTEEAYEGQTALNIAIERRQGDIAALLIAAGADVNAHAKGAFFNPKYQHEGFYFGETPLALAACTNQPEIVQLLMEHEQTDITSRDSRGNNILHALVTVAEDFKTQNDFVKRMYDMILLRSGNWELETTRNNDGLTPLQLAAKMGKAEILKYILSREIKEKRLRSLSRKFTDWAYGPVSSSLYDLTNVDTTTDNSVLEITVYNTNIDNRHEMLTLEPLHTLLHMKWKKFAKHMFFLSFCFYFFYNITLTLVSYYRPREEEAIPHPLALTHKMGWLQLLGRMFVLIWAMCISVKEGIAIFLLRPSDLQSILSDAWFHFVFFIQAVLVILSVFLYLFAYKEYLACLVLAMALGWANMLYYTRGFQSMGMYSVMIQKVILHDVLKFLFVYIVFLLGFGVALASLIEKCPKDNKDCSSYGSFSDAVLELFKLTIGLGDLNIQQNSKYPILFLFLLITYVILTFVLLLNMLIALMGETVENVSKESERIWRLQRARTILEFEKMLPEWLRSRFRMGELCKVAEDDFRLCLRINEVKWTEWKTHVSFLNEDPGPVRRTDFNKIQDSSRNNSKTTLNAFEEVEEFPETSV

| SMILES | IC50 (hTRPV3 [1]; read-out: FLIPR IC50) [µM] | also measured |
| --- | --- | --- |
| O=C(c1nccnc1O)N1CCC(c2ccc(-c3ccccc3C3CC3)cc2CO)C1 (stereo not drawn) [Compound 2.150] | > 10 |  |
| Cn1ccc(C(=O)N2CCC(c3ccc(-c4ccccc4C4CC4)cc3CO)C2)n1 (stereo not drawn) [Compound 2-163] | > 10 |  |
| CN1CCc2nc(C(=O)N3CCC(c4ccc(-c5ccccc5C5CC5)cc4CO)C3)sc2C1 (stereo not drawn) [Compound 2-165] | > 10 |  |
| Cn1ccnc1C(=O)N1CCC(c2ccc(-c3ccccc3C3CC3)cc2CO)C1 (stereo not drawn) [Compound 2-164] | > 10 |  |
| O=C(c1ccc(CO)nn1)N1CCC(c2ccc(-c3ccccc3C3CC3)cc2CO)C1 (stereo not drawn) [Compound 2-138] | > 10 |  |
| COc1cnc(C(=O)N2CCC(c3ccc(-c4ccccc4C4CC4)cc3CO)C2)nc1 (stereo not drawn) [Compound 2.158] | 6.12 |  |
| Cc1ccc(C(=O)N2CCC(c3ccc(-c4ccccc4C4CC4)cc3CO)C2)nc1O (stereo not drawn) [Compound 2-140] | 5.57 |  |
| Cc1nnc(C(=O)N2CCC(c3ccc(-c4ccccc4C4CC4)cc3CO)C2)o1 (stereo not drawn) [Compound 2-129] | > 10 |  |
| O=C(c1cccc(CO)n1)N1CCC(c2ccc(-c3ccccc3C3CC3)cc2CO)C1 (stereo not drawn) [Compound 2.152] | 4.56 |  |
| O=C(c1cc2n(n1)CCC2)N1CCC(c2ccc(-c3ccccc3C3CC3)cc2CO)C1 (stereo not drawn) [Compound 2-162] | 5.19 |  |
| O=C(c1cc(O)ccn1)N1CCC(c2ccc(-c3ccccc3C3CC3)cc2CO)C1 (stereo not drawn) [Compound 2-132] | > 10 |  |
| Cn1cnc(C(=O)N2CCC(c3ccc(-c4ccccc4C4CC4)cc3CO)C2)c1 (stereo not drawn) [Compound 2-161] | 9.52 |  |
| O=C(c1ccc(O)nn1)N1CCC(c2ccc(-c3ccccc3C3CC3)cc2CO)C1 (stereo not drawn) [Compound 2-133] | > 10 |  |
| Cc1nnc(C(=O)N2CCC(c3ccc(-c4ccccc4C4CC4)cc3CO)C2)cc1O (stereo not drawn) [Compound 2-142] | > 10 |  |
| Cc1nc(C(=O)N2CCC(c3ccc(-c4ccccc4C4CC4)cc3CO)C2)cnc1O (stereo not drawn) [Compound 2-136] | 5.17 |  |
| O=C(c1cnc(O)cn1)N1CCC(c2ccc(-c3ccccc3C3CC3)cc2CO)C1 (stereo not drawn) [Compound 2-130] |  | IC50 (hTRPV3 [1]; FLIPR IC50 (uM)): 4.8 µM |
| O=C(c1ccc(O)cn1)N1CCC(c2ccc(-c3ccccc3C3CC3)cc2CO)C1 (stereo not drawn) [Compound 2-135] | 3.09 |  |
| Cc1coc(C(=O)N2CCC(c3ccc(-c4ccccc4C4CC4)cc3CO)C2)n1 (stereo not drawn) [Compound 2.146] | 5.95 |  |
| COc1cncc(C(=O)N2CCC(c3ccc(-c4ccccc4C4CC4)cc3CO)C2)n1 (stereo not drawn) [Compound 2-125] | 1.79 | IC50 (hTRPV3 [2]; [6]): 99.6 nM |
| CCc1oc(C(=O)N2CCC(c3ccc(-c4ccccc4C4CC4)cc3CO)C2)nc1C (stereo not drawn) [Compound 2.145] | 4.43 |  |

| SMILES | IC50 (hTRPV3 [1]; read-out: FLIPR IC50) [µM] | also measured |
| --- | --- | --- |
| CC(C)c1ccccc1-c1ccc(C2CCN(Cc3ccc(F)cn3)C2)c(CO)c1 (stereo not drawn) [Compound 2-95] |  | IC50 (human hERG channels): < 1000 nM; IC50 (hTRPV3 [3]; Phase 1 current, human TRPV3, read-out: hTRPV3 (nM) Phase 1): 582 nM; IC50 (hTRPV3 [3]; [7]): 100 to 1000 nM |
| Cc1nc(C(=O)N2CCC(c3ccc(-c4ccccc4C4CC4)cc3CO)C2)ccc1CO (stereo not drawn) [Compound 2-144] | 3.27 |  |
| O=C(c1cncc(O)n1)N1CCC(c2ccc(-c3ccccc3C3CC3)cc2CO)C1 (stereo not drawn) [Compound 2-131] |  | IC50 (hTRPV3 [1]; FLIPR IC50 (uM)): > 10 µM |
| Cc1nc(C(=O)N2CCC(c3ccc(-c4ccccc4C4CC4)cc3CO)C2)ccc1O (stereo not drawn) [Compound 2-143] |  | IC50 (hTRPV3 [1]; FLIPR IC50 (uM)): 0.86 µM; IC50 (hTRPV3 [2]; [6]): 10.3 nM; solubility at 40 min [4]: 0.0183 µM (≈ 0.00784 µg/mL) |
| COc1ccnc(C(=O)N2CCC(c3ccc(-c4ccccc4C4CC4)cc3CO)C2)c1 (stereo not drawn) [Compound 2-141] | 4.49 |  |
| COc1ncc(C(=O)N2CCC(c3ccc(-c4ccccc4C4CC4)cc3CO)C2)nc1C (stereo not drawn) [Compound 2-126] | 1.18 | IC50 (hTRPV3 [2]; [6]): 84 nM |
| Cc1nc(C(=O)N2CCC(c3ccc(-c4ccccc4C4CC4)cc3CO)C2)no1 (stereo not drawn) [Compound 2-128] | 1.85 | IC50 (hTRPV3 [2]; [6]): 479 nM |
| O=C(c1ncon1)N1CCC(c2ccc(-c3ccccc3C3CC3)cc2CO)C1 (stereo not drawn) [Compound 2-127] | 1.9 | IC50 (hTRPV3 [2]; [6]): 130 nM |
| COc1cncc(C(=O)N2CCC(c3ccc(-c4ccccc4C4CC4)cc3CO)C2)n1 (stereo not drawn) [Compound 2.151] | 0.78 |  |
| NC(=O)c1cc(C(=O)c2ccccc2)ccc1N1CC[C@H](Oc2ccc(C(F)(F)F)cn2)C1 [Compound 1-130, (S)-5-benzoyl-2-(3-(5-(trifluoromethyl)pyridin-2-yloxy)pyrrolidin-1-yl)benzamide] |  | half-life at 1 μM [5]: 67 min; hTRPV3 HAMA IC50 (nM) (5 min) (hTRPV3 [2]): no fit (5 min); solubility at 40 min [4]: ~12.2 µM (≈ 5.56 µg/mL); IC50 (hTRPV3 [3]; [7]): > 1000 nM; IC50 (hTRPV3 [3]; [8]): 1540 nM |
| O=C(c1ncc(Cl)cn1)N1CCC(c2ccc(-c3ccccc3C3CC3)cc2CO)C1 (stereo not drawn) [Compound 2-159] | 5.18 |  |
| Cc1ocnc1C(=O)N1CCC(c2ccc(-c3ccccc3C3CC3)cc2CO)C1 (stereo not drawn) [Compound 2.148] | 2.93 |  |
| O=C(c1csc(CO)n1)N1CCC(c2ccc(-c3ccccc3C3CC3)cc2CO)C1 (stereo not drawn) [Compound 2-160] | > 10 |  |
| O=C(c1cc(CO)ccn1)N1CCC(c2ccc(-c3ccccc3C3CC3)cc2CO)C1 (stereo not drawn) [Compound 2.154] | 4.21 |  |
| O=C(c1ccc(CO)cn1)N1CCC(c2ccc(-c3ccccc3C3CC3)cc2CO)C1 (stereo not drawn) [Compound 2-134] | 9.5 |  |
| COCc1ccnc(C(=O)N2CCC(c3ccc(-c4ccccc4C4CC4)cc3CO)C2)c1 (stereo not drawn) [Compound 2.155] | 9.25 |  |
| O=C(c1ncccc1O)N1CCC(c2ccc(-c3ccccc3C3CC3)cc2CO)C1 (stereo not drawn) [Compound 2-139] | 7.68 |  |
| CCc1ccccc1Oc1ccc(N2CC[C@H](Oc3ncccc3Cl)C2)c(CO)c1 [Compound 1-222, (S)-(2-(3-(3-chloropyridin-2-yloxy)pyrrolidin-1-yl)-5-(2-ethylphenoxy)phenyl)methanol] |  | half-life at 1 μM [5]: 18.7 min; hTRPV3 HAMA IC50 (nM) (5 min) (hTRPV3 [2]): no fit; IC50 (hTRPV3 [2]; hTRPV3 HAMA IC50 (nM) (30 min), 30 min): 1790 nM; Solubility Ringer (nM) [4]: BLQ; IC50 (hTRPV3 [3]; [7]): < 10 nM; IC50 (hTRPV3 [3]; [8]): 3.91 nM |
| NC(=O)c1cc(-c2ccccc2)ccc1N1CC[C@H](Oc2ccc(C(F)(F)F)cn2)C1 [Compound 1-32, (S)-4-(3-(5-(trifluoromethyl)pyridin-2-yloxy)pyrrolidin-1-yl)biphenyl-3-carboxamide] |  | half-life at 1 μM [5]: 44.3 min; hTRPV3 HAMA IC50 (nM) (5 min) (hTRPV3 [2]): no fit (5 min); Solubility Ringer (nM) [4]: BLQ; IC50 (hTRPV3 [3]; [7]): 100 to 1000 nM; IC50 (hTRPV3 [3]; [8]): 285 nM; IC50 (hTRPV3 [3]; Phase 2 current, inward, whole-cell patch clamp, read-out: hTRPV3 Patch P2 Inwd): 100 to 1000 nM; IC50 (hTRPV3 [3]; Phase 2 current, read-out: hTRPV3 (nM) (Phase 2)): 273 nM |
| O=C(c1cnc(CO)cn1)N1CCC(c2ccc(-c3ccccc3C3CC3)cc2CO)C1 (stereo not drawn) [Compound 2-137] | > 10 |  |
